The record followed here is US20220281821A1, “INDAZOLE COMPOUNDS AND THEIR PHARMACEUTICAL COMPOSITIONS” (Jinan University, priority 2019, published 2022).

A value given as a limit tells only on which side of the number the result lay.

For one assay, the target named is T1, TRKA (Homo sapiens, UniProt P04629).
T1 construct: purchased life technologies PV3144
In words: Z′-LYTE kinase activity assay, TRKA. The format is biochemical. As to conditions: ATP 400 uM. The procedure, abridged:
(§1)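 Z′-LYTE FRET assay using Tyr 01 peptide substrate (2 μM) in 50 mM HEPES pH 7.5 with 10 mM MgCl2, 1 mM EGTA and 0.01% BRIJ-35. Inhibition was derived from the phosphorylation ratio versus negative control, with IC50 from concentration gradients.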

In another assay the target is T2, BaF3-CD74-NTRK1 (Homo sapiens, UniProt P04629).
T2 construct: fused on or other part: P04233 (HLA class II histocompatibility antigen gamma chain)
In words: Cell proliferation inhibition (CCK-8), BaF3-CD74-NTRK1 stable strain. The format is cell-based, mouse. The settings on record: BaF3-CD74-NTRK1, 72 hours. The procedure, abridged:
(§2)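 Ba/F3 cells stably electroporated with ETV6-NTRK3, CD74-NTRK1 or ETV6-NTRK2, selected with G418 and grown without IL3, then cloned by limiting dilution.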

The target in the next assay is T3, BaF3-ETV6-NTRK2 (Homo sapiens, UniProt Q16620).
T3 construct: fused on or other part: P41212 (Transcription factor ETV6)
Kind of assay: Cell proliferation inhibition (CCK-8), BaF3-ETV6-NTRK2 stable strain. The settings on record: BaF3-ETV6-NTRK2, 72 hours. The format is cell-based, mouse. The procedure, abridged: as §2

In a further assay the target is T4, TRKB (Homo sapiens, UniProt Q16620).
T4 construct: purchased life technologies PV3616
Kind of assay: Z′-LYTE kinase activity assay, TRKB. The assay is classed as biochemical. As to conditions: ATP 25 uM. The procedure, abridged:
as §1

A further assay concerns the target T5, TRKC (Homo sapiens, UniProt Q16288).
T5 construct: purchased life technologies PV3617
Kind of assay: Z′-LYTE kinase activity assay, TRKC. The format is biochemical. As to conditions: ATP 50 uM. The method, boiled down:
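Recombinant TRK kinase tested in a Z′-LYTE FRET assay with 2 μM Tyr 01 peptide substrate in 50 mM HEPES pH 7.5, 10 mM MgCl2, 1 mM EGTA, 0.01% BRIJ-35. IC50 obtained by curve fitting.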

The target of the next assay is T6, BaF3-ETV6-NTRK3 (Homo sapiens, UniProt Q16288).
T6 construct: fused on or other part: P41212 (Transcription factor ETV6)
In words: Cell proliferation inhibition (CCK-8), BaF3-ETV6-NTRK3 stable strain. The format is cell-based, mouse. The settings on record: BaF3-ETV6-NTRK3, 72 hours. The method, boiled down:
as §2

T4 sequence (Q16620 32-822): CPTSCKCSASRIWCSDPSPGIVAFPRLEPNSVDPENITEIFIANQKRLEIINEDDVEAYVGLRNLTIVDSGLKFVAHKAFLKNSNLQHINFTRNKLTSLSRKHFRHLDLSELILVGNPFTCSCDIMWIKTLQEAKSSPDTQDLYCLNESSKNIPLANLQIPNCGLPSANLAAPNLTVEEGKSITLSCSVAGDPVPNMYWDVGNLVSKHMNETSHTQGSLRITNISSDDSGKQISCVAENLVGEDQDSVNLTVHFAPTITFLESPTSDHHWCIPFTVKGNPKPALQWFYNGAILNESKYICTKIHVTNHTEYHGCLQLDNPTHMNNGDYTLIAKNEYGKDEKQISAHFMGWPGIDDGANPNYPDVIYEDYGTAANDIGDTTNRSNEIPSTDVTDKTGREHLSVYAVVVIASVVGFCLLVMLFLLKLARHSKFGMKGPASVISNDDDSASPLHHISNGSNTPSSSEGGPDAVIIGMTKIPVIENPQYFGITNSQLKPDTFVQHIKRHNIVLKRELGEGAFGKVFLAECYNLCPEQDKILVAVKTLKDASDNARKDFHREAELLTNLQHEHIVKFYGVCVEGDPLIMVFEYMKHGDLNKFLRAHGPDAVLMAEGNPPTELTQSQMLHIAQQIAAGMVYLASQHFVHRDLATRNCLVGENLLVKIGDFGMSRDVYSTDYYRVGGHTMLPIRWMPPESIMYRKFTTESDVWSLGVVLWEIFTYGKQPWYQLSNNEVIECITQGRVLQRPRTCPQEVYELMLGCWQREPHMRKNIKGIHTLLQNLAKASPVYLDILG
T2 sequence (P04629 510-796 limits assumed): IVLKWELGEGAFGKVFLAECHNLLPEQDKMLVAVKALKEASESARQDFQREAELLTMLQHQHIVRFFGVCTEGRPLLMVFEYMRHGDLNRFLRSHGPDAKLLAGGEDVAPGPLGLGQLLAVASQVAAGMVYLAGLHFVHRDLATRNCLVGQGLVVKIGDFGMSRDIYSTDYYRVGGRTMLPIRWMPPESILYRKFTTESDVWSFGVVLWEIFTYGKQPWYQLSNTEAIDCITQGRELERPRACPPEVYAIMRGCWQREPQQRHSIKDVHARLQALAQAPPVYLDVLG
T3 sequence (Q16620 538-822 limits assumed): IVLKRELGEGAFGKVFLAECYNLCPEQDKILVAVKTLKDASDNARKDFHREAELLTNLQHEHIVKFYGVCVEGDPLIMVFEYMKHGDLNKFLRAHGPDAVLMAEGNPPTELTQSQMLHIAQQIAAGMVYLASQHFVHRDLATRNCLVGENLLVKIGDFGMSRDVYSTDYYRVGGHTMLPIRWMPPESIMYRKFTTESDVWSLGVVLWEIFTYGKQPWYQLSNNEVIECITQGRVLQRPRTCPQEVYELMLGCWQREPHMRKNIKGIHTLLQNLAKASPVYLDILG
T5 sequence (Q16288 32-839): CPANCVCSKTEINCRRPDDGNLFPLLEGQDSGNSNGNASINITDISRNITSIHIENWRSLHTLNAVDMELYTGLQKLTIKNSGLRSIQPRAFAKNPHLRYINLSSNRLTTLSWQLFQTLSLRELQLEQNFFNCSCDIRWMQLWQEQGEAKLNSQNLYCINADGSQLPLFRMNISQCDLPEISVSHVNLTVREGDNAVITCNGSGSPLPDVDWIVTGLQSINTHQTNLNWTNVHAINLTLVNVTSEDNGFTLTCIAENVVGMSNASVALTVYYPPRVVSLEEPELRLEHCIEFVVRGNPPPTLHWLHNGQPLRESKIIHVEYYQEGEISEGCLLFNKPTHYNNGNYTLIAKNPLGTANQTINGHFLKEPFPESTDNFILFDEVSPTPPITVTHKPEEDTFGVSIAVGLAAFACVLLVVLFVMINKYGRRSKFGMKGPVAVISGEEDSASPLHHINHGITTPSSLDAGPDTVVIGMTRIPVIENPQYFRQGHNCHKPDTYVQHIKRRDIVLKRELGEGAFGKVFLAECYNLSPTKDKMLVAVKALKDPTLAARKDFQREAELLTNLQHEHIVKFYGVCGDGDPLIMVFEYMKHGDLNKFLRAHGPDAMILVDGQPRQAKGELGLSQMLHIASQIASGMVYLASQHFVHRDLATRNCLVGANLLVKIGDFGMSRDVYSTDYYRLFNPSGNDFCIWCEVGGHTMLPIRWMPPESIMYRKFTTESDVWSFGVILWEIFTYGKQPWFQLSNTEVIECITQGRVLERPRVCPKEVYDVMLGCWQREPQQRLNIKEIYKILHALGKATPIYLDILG
T1 sequence (P04629 440-796 limits assumed): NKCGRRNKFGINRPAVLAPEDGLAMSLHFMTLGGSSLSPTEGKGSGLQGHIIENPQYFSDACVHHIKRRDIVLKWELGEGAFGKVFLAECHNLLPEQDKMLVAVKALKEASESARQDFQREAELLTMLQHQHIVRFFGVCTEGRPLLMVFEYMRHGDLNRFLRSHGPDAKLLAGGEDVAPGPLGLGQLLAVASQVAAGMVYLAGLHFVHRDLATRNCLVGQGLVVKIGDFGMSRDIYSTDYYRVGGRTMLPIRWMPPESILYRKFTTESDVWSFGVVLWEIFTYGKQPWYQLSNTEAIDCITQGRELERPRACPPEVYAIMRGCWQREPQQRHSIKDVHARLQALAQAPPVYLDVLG
T6 sequence (Q16288 whole entry, the tested form may be a part): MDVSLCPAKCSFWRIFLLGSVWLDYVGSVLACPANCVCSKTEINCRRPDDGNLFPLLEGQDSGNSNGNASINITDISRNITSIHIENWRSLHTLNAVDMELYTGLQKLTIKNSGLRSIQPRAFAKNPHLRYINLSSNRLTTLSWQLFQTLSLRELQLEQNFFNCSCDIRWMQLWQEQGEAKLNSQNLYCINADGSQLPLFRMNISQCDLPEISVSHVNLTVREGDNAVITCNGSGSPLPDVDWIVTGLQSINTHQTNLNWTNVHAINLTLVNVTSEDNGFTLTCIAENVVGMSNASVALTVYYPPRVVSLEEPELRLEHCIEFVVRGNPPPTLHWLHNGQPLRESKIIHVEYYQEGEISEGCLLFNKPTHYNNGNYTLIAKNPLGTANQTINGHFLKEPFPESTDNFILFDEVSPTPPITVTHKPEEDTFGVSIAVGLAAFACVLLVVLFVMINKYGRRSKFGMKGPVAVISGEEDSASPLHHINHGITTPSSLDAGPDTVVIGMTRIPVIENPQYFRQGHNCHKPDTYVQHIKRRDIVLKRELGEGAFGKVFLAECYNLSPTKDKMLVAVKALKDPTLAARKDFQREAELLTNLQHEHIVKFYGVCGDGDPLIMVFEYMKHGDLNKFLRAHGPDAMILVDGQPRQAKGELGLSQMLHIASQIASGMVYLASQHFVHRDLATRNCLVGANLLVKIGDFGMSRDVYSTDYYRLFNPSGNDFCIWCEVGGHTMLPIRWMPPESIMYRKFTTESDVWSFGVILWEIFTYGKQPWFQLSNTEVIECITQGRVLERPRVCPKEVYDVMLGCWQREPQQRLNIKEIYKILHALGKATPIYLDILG

For the compound `Cc1cccc(Cc2ccc3[nH]nc(/C=C/c4ccccn4)c3c2)c1` [DYX-137X, (E)-5-(3-methylbenzyl)-3-(2-(pyridin-2-yl)vinyl)-1H-indazole], the concentration for half-maximal inhibition (IC50) was determined as 33.8 nM on TRKA; 2420 nM on BaF3-CD74-NTRK1; 3720 nM on BaF3-ETV6-NTRK2; 80.8 nM against TRKB; 21.9 nM on TRKC; 3180 nM on BaF3-ETV6-NTRK3.

As to `FC(F)(F)c1cccc(Cc2ccc3[nH]nc(/C=C/c4ccccn4)c3c2)c1` [DYX-138X, (E)-3-(2-(pyridin-2-yl)vinyl)-5-(3-(trifluoromethyl)benzyl)-1H-indazole], the 50% inhibitory concentration (IC50) against TRKA is 757 nM; against BaF3-CD74-NTRK1, 6650 nM; against BaF3-ETV6-NTRK2, 4080 nM; at TRKB, 356 nM; against TRKC, 262 nM; against BaF3-ETV6-NTRK3, above 10000 nM.

For the compound `CN(c1cc(F)cc(F)c1)c1ccc2[nH]nc(/C=C/c3ccccn3)c2c1` [DYX-139, (E)-N-(3,5-difluorophenyl)-N-methyl-3-(2-(pyridin-2-yl)vinyl)-1H-indazol-5-amine], the half-inhibitory concentration (IC50) on TRKA stood at 15 nM; against BaF3-CD74-NTRK1, 2360 nM; on BaF3-ETV6-NTRK2, 1790 nM; at TRKB, 25.7 nM; against TRKC it was 18.1 nM; against BaF3-ETV6-NTRK3, 1270 nM.

Consider `O=S(=O)(c1cc(F)cc(F)c1)c1cc2c(/C=C/c3ccccn3)n[nH]c2cn1` [DYX-149, (E)-5-((3,5-difluorophenyl)sulfonyl)-3-(2-(pyridin-2-yl)vinyl)-1H-pyrazolo[3,4-c]pyridine], for which the 50% inhibitory concentration (IC50) against TRKA was 318 nM; against BaF3-CD74-NTRK1 it was 3080 nM; on BaF3-ETV6-NTRK2 it was 2460 nM; against TRKB, above 1000 nM; against TRKC, 155 nM; at BaF3-ETV6-NTRK3 it was 3100 nM.

For the compound `O=S(=O)(c1cc(F)cc(F)c1)c1ccc2[nH]nc(/C=C/c3ccccn3)c2n1` [DYX-150, (E)-5-((3,5-difluorophenyl)sulfonyl)-3-(2-(pyridin-2-yl)vinyl)-1H-pyrazolo[4,3-b]pyridine], the half-inhibitory concentration (IC50) was 3.3 nM at TRKA; 65.2 nM on BaF3-CD74-NTRK1; 163 nM on BaF3-ETV6-NTRK2; 9.4 nM at TRKB; 4.1 nM at TRKC; 120 nM against BaF3-ETV6-NTRK3.

As to `O=C(Nc1ccc2[nH]nc(/C=C/c3ccccn3)c2c1)c1cc(F)cc(F)c1` [DYX-164, (E)-3,5-difluoro-N-(3-(2-(pyridin-2-yl)vinyl)-1H-indazol-5-yl)benzamide], the half-maximal inhibitory concentration (IC50) against TRKA was found to be 196 nM; against BaF3-CD74-NTRK1 it was 1930 nM; against BaF3-ETV6-NTRK2 it was 2580 nM; at TRKB it was 741 nM; against TRKC, 226 nM; against BaF3-ETV6-NTRK3, 2240 nM.

With `Fc1ccc(F)c([C@H]2CCCN2c2ccc3[nH]nc(/C=C/c4ccccn4)c3c2)c1` [DYX-170, (R,E)-5-(2-(2,5-difluorophenyl)pyrrolidin-1-yl)-3-(2-(pyridin-2-yl)vinyl)-1H-indazole], the IC50 is 8.1 nM at TRKA; 99.4 nM at BaF3-CD74-NTRK1; 242 nM on BaF3-ETV6-NTRK2; 18.4 nM at TRKB; 1.9 nM against TRKC; 167 nM on BaF3-ETV6-NTRK3.

For the compound `O=C(Nc1cc(F)cc(F)c1)c1ccc2[nH]nc(/C=C/c3ccccn3)c2c1` [DYX-171, (E)-N-(3,5-difluorophenyl)-3-(2-(pyridin-2-yl)vinyl)-1H-indazole-5-carboxamide], the concentration for half-maximal inhibition (IC50) against TRKA is 577 nM; against BaF3-CD74-NTRK1 it was 8040 nM; against BaF3-ETV6-NTRK2, 2730 nM; against TRKB, above 1000 nM; at TRKC, 532 nM; at BaF3-ETV6-NTRK3, 2640 nM.

With `O=C(Nc1cc(F)cc(F)c1)Nc1ccc2[nH]nc(/C=C/c3ccccn3)c2c1` [DYX-174, (E)-1-(3,5-difluorophenyl)-3-(3-(2-(pyridin-2-yl)vinyl)-1H-indazol-5-yl)urea], the 50% inhibitory concentration (IC50) amounted to 46.8 nM on TRKA; 1180 nM on BaF3-CD74-NTRK1; 1910 nM against BaF3-ETV6-NTRK2; 242 nM against TRKB; 94.1 nM at TRKC; 623 nM against BaF3-ETV6-NTRK3.

As to `Fc1cc(F)cc(OCc2ccc3[nH]nc(/C=C/c4ccccn4)c3c2)c1` [DYX-176], the concentration for half-maximal inhibition (IC50) worked out at 7.1 nM against TRKA; 627 nM at BaF3-CD74-NTRK1; 2520 nM on BaF3-ETV6-NTRK2; 21.4 nM on TRKB; 6.5 nM against TRKC; 1040 nM against BaF3-ETV6-NTRK3.

For the compound `Fc1cc(F)cc(CCc2ccc3[nH]nc(/C=C/c4ccccn4)c3c2)c1` [DYX-180, (E)-5-(3,5-difluorophenethyl)-3-(2-(pyridin-2-yl)vinyl)-1H-indazole], the half-inhibitory concentration (IC50) was 3.9 nM on TRKA; 498 nM against BaF3-CD74-NTRK1; 694 nM at BaF3-ETV6-NTRK2; 9.9 nM at TRKB; 4.7 nM against TRKC; 415 nM against BaF3-ETV6-NTRK3.

Consider `Fc1cc(F)cc(CNc2ccc3[nH]nc(/C=C/c4ccccn4)c3c2)c1` [DYX-185, (E)-N-(3,5-difluorobenzyl)-3-(2-(pyridin-2-yl)vinyl)-1H-indazol-5-amine], for which the IC50 at TRKA was found to be 1.7 nM; against BaF3-CD74-NTRK1, 32.6 nM; against BaF3-ETV6-NTRK2, 43.9 nM; at TRKB, 10 nM; against TRKC it was 1.9 nM; against BaF3-ETV6-NTRK3, 23.7 nM.

Turning to `CN(Cc1cc(F)cc(F)c1)c1ccc2[nH]nc(/C=C/c3ccccn3)c2c1` [DYX-187, (E)-N-(3,5-difluorobenzyl)-N-methyl-3-(2-(pyridin-2-yl)vinyl)-1H-indazol-5-amine], the IC50 against TRKA amounted to 18.7 nM; against BaF3-CD74-NTRK1, 172 nM; against BaF3-ETV6-NTRK2, 625 nM; against TRKB, 20.3 nM; at TRKC it was 6.2 nM; against BaF3-ETV6-NTRK3, 278 nM.

As for `Fc1cc(F)cc(NCc2ccc3[nH]nc(/C=C/c4ccccn4)c3c2)c1` [DYX-191, (E)-3,5-difluoro-N-((3-(2-(pyridin-2-yl)vinyl)-1H-indazol-5-yl)methyl)aniline], the concentration for half-maximal inhibition (IC50) was found to be 9.1 nM against TRKA; 264 nM on BaF3-CD74-NTRK1; 667 nM against BaF3-ETV6-NTRK2; 37.1 nM on TRKB; 16.6 nM at TRKC; 503 nM on BaF3-ETV6-NTRK3.

In the case of `CN(Cc1ccc2[nH]nc(/C=C/c3ccccn3)c2c1)c1cc(F)cc(F)c1` [DYX-193, (E)-3,5-difluoro-N-methyl-N-((3-(2-(pyridin-2-yl)vinyl)-1H-indazol-5-yl)methyl)aniline], the IC50 against TRKA amounted to 45.4 nM; on BaF3-CD74-NTRK1 it was 136 nM; at BaF3-ETV6-NTRK2 it was 316 nM; against TRKB, 120 nM; against TRKC it was 33.2 nM; on BaF3-ETV6-NTRK3, 83 nM.

`Fc1cc(F)cc(Cc2ccc3[nH]nc(/C=C/c4ccncc4)c3c2)c1` [DYX-215, (E)-5-(3,5-difluorobenzyl)-3-(2-(pyridin-4-yl)vinyl)-1H-indazole]: the half-maximal inhibitory concentration (IC50) amounted to 3.3 nM on TRKA; 147 nM on BaF3-CD74-NTRK1; 170 nM at BaF3-ETV6-NTRK2; 22.4 nM at TRKB; 20.9 nM on TRKC; 110 nM on BaF3-ETV6-NTRK3.

Take `Fc1ccc(F)c(CNc2ccc3[nH]nc(/C=C/c4ccccn4)c3c2)c1` [DYX-216A, (E)-N-(2,5-difluorobenzyl)-3-(2-(pyridin-2-yl)vinyl)-1H-indazol-5-amine]: the IC50 against TRKA came to 1.1 nM; against BaF3-CD74-NTRK1 it was 12.6 nM; on BaF3-ETV6-NTRK2 it was 8.7 nM; on TRKB it was 6.5 nM; against TRKC, 1.3 nM; against BaF3-ETV6-NTRK3 it was 7.2 nM.

For `C[C@@H](Nc1ccc2[nH]nc(/C=C/C(=O)N3CC[C@H](O)C3)c2c1)c1cc(F)cc(F)c1` [DYX-303, (E)-3-(5-(((R)-1-(3,5-difluorophenyl)ethyl)amino)-1H-indazol-3-yl)-1-((S)-3-hydroxylpyrrolidin-1-yl)prop-2-en-1-one], the IC50 against TRKA came to 3 nM; at BaF3-CD74-NTRK1, 10.1 nM; against BaF3-ETV6-NTRK2, 20 nM; on TRKB it was 4.8 nM; against TRKC, 0.8 nM; against BaF3-ETV6-NTRK3 it was 7.1 nM.

Regarding `Fc1cccc(CNc2ccc3[nH]nc(/C=C/c4ccccn4)c3c2)c1` [DYX-305, (E)-N-(3-fluorobenzyl)-3-(2-(pyridin-2-yl)vinyl)-1H-indazol-5-amine], the half-maximal inhibitory concentration (IC50) against TRKA was 1.8 nM; against BaF3-CD74-NTRK1 it was 28.2 nM; at BaF3-ETV6-NTRK2, 51.3 nM; at TRKB, 9.5 nM; at TRKC it was 1.3 nM; against BaF3-ETV6-NTRK3 it was 22.9 nM.
